Active and inactive are the calls of the source. The rule behind the calls is not given here.
Test system: CCRIS mutagenicity, Ames/micronucleus/aberration tests
Assay: CCRIS mutagenicity studies
[1] = Test System: AMES SALMONELLA TYPHIMURIUM, Strain/Indicator: TA100, Metabolic Activation: NONE, Method: STANDARD PLATE

CCSCCC(N)C(=O)O (configuration not stated)
mutagenic call (Test System: AMES SALMONELLA TYPHIMURIUM, Strain/Indicator: TA97, Metabolic Activation: HAMSTER, LIVER, S-9, AROCLOR 1254 (10%), Method: PREINCUBATION): inactive; negative | mutagenic call (Test System: AMES SALMONELLA TYPHIMURIUM, Strain/Indicator: TA97, Metabolic Activation: HAMSTER, LIVER, S-9, AROCLOR 1254 (30%), Method: PREINCUBATION): inactive; negative | mutagenic call (Test System: AMES SALMONELLA TYPHIMURIUM, Strain/Indicator: TA97, Metabolic Activation: NONE, Method: PREINCUBATION): inactive; negative | mutagenic call (Test System: AMES SALMONELLA TYPHIMURIUM, Strain/Indicator: TA97, Metabolic Activation: RAT, LIVER, S-9, AROCLOR 1254 (10%), Method: PREINCUBATION): inactive; negative | mutagenic call (Test System: AMES SALMONELLA TYPHIMURIUM, Strain/Indicator: TA97, Metabolic Activation: RAT, LIVER, S-9, AROCLOR 1254 (30%), Method: PREINCUBATION): inactive; negative | mutagenic call (Test System: AMES SALMONELLA TYPHIMURIUM, Strain/Indicator: TA98, Metabolic Activation: HAMSTER, LIVER, S-9, AROCLOR 1254 (10%), Method: PREINCUBATION): inactive; negative | mutagenic call (Test System: AMES SALMONELLA TYPHIMURIUM, Strain/Indicator: TA98, Metabolic Activation: HAMSTER, LIVER, S-9, AROCLOR 1254 (30%), Method: PREINCUBATION): inactive; negative | mutagenic call (Test System: AMES SALMONELLA TYPHIMURIUM, Strain/Indicator: TA98, Metabolic Activation: NONE, Method: PREINCUBATION): inactive; negative | mutagenic call (Test System: AMES SALMONELLA TYPHIMURIUM, Strain/Indicator: TA98, Metabolic Activation: RAT, LIVER, S-9, AROCLOR 1254 (10%), Method: PREINCUBATION): inactive; negative | mutagenic call (Test System: AMES SALMONELLA TYPHIMURIUM, Strain/Indicator: TA98, Metabolic Activation: RAT, LIVER, S-9, AROCLOR 1254 (30%), Method: PREINCUBATION): inactive; negative | mutagenic call (Test System: AMES SALMONELLA TYPHIMURIUM, Strain/Indicator: TA100, Metabolic Activation: HAMSTER, LIVER, S-9, AROCLOR 1254 (10%), Method: PREINCUBATION): inactive; negative | mutagenic call (Test System: AMES SALMONELLA TYPHIMURIUM, Strain/Indicator: TA100, Metabolic Activation: HAMSTER, LIVER, S-9, AROCLOR 1254 (30%), Method: PREINCUBATION): inactive; negative | mutagenic call (Test System: AMES SALMONELLA TYPHIMURIUM, Strain/Indicator: TA100, Metabolic Activation: NONE, Method: PREINCUBATION): inactive; negative | mutagenic call (Test System: AMES SALMONELLA TYPHIMURIUM, Strain/Indicator: TA100, Metabolic Activation: RAT, LIVER, S-9, AROCLOR 1254 (10%), Method: PREINCUBATION): inactive; negative | mutagenic call (Test System: AMES SALMONELLA TYPHIMURIUM, Strain/Indicator: TA100, Metabolic Activation: RAT, LIVER, S-9, AROCLOR 1254 (30%), Method: PREINCUBATION): inactive; negative | mutagenic call (Test System: AMES SALMONELLA TYPHIMURIUM, Strain/Indicator: TA104, Metabolic Activation: HAMSTER, LIVER, S-9, AROCLOR 1254 (10%), Method: PREINCUBATION): inactive; negative | mutagenic call (Test System: AMES SALMONELLA TYPHIMURIUM, Strain/Indicator: TA104, Metabolic Activation: HAMSTER, LIVER, S-9, AROCLOR 1254 (30%), Method: PREINCUBATION): inactive; negative | mutagenic call (Test System: AMES SALMONELLA TYPHIMURIUM, Strain/Indicator: TA104, Metabolic Activation: NONE, Method: PREINCUBATION): inactive; negative | mutagenic call (Test System: AMES SALMONELLA TYPHIMURIUM, Strain/Indicator: TA104, Metabolic Activation: RAT, LIVER, S-9, AROCLOR 1254 (10%), Method: PREINCUBATION): inactive; negative | mutagenic call (Test System: AMES SALMONELLA TYPHIMURIUM, Strain/Indicator: TA104, Metabolic Activation: RAT, LIVER, S-9, AROCLOR 1254 (30%), Method: PREINCUBATION): inactive; negative | mutagenic call (Test System: AMES SALMONELLA TYPHIMURIUM, Strain/Indicator: TA1535, Metabolic Activation: HAMSTER, LIVER, S-9, AROCLOR 1254 (10%), Method: PREINCUBATION): inactive; negative | mutagenic call (Test System: AMES SALMONELLA TYPHIMURIUM, Strain/Indicator: TA1535, Metabolic Activation: HAMSTER, LIVER, S-9, AROCLOR 1254 (30%), Method: PREINCUBATION): inactive; negative | mutagenic call (Test System: AMES SALMONELLA TYPHIMURIUM, Strain/Indicator: TA1535, Metabolic Activation: NONE, Method: PREINCUBATION): inactive; negative | mutagenic call (Test System: AMES SALMONELLA TYPHIMURIUM, Strain/Indicator: TA1535, Metabolic Activation: RAT, LIVER, S-9, AROCLOR 1254 (10%), Method: PREINCUBATION): inactive; negative | mutagenic call (Test System: AMES SALMONELLA TYPHIMURIUM, Strain/Indicator: TA1535, Metabolic Activation: RAT, LIVER, S-9, AROCLOR 1254 (30%), Method: PREINCUBATION): inactive; negative

C1=CC2=C3OC3c3cc4c(cc3C2C=C1)c1c(c2ccccc24)O1 (configuration not stated)
mutagenic call [1]: active; positive

c1cc2c3oc3cc3ccc4c5oc5cc1c4c32
mutagenic call [1]: active; positive

CCOC(=O)CC1OCCc2c1[nH]c1c(CC)c(O)ccc21 (configuration not stated)
mutagenic call (Test System: AMES SALMONELLA TYPHIMURIUM, Strain/Indicator: TA98, Metabolic Activation: NONE, Method: STANDARD PLATE): inactive; negative | mutagenic call (Test System: AMES SALMONELLA TYPHIMURIUM, Strain/Indicator: TA98, Metabolic Activation: RAT, LIVER, S-9 (10 OR 50 µL/PLATE), Method: STANDARD PLATE): inactive; negative | mutagenic call [1]: inactive; negative | mutagenic call (Test System: AMES SALMONELLA TYPHIMURIUM, Strain/Indicator: TA100, Metabolic Activation: RAT, LIVER, S-9 (10 OR 50 µL/PLATE), Method: STANDARD PLATE): inactive; negative | mutagenic call (Test System: AMES SALMONELLA TYPHIMURIUM, Strain/Indicator: TA1535, Metabolic Activation: NONE, Method: STANDARD PLATE): active; positive | mutagenic call (Test System: AMES SALMONELLA TYPHIMURIUM, Strain/Indicator: TA1535, Metabolic Activation: RAT, LIVER, S-9 (10 OR 50 µL/PLATE), Method: STANDARD PLATE): active; positive | mutagenic call (Test System: AMES SALMONELLA TYPHIMURIUM, Strain/Indicator: TA1537, Metabolic Activation: NONE, Method: STANDARD PLATE): inactive; negative | mutagenic call (Test System: AMES SALMONELLA TYPHIMURIUM, Strain/Indicator: TA1537, Metabolic Activation: RAT, LIVER, S-9 (10 OR 50 µL/PLATE), Method: STANDARD PLATE): inactive; negative | mutagenic call (Test System: E. COLI, Strain/Indicator: WP2 UVRA, Metabolic Activation: NONE, Method: STANDARD PLATE): inactive; negative | mutagenic call (Test System: E. COLI, Strain/Indicator: WP2 UVRA, Metabolic Activation: RAT, LIVER, S-9 (10 OR 50 µL/PLATE), Method: STANDARD PLATE): inactive; negative

— PubChem BioAssay AID1259407 (Chemical Carcinogenesis Research Information System (CCRIS), 2018)
